Results on five compounds are retold here after ChEMBL document CHEMBL1201862, “PubChem BioAssay data set” (2004).

Each structure is given as a SMILES string.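 Test compounds were applied to cells in 96-well plates for 48 hours at 5 doses. Here, GI50 denotes the concentration required for 50% inhibition of growth.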 Activity calls are given as the source filed them. Cut-off read from the data, not from the text of the source: active = GI50 up to about 1.1 µM and inactive = higher.

Among the test systems are A549; CAKI-1; DMS-114; EKVX; HCT-15; HT-29; K562; LOX IMVI; MOLT-4; OVCAR-4; OVCAR-5; SNB-19; TK-10; U-251; UACC-257; NCI-H522; Hs-578T; NCI/ADR-RES; SR; T47D.
What all share (assay): NCI tumour cell line growth inhibition, 48 h

For `COc1ccc(/C=C2\C(=O)N(NC(C)=O)c3ccccc32)cc1`, the GI50 is 58.9 µM (inactive) in the experiment on A549; 43.5 µM (inactive) with CAKI-1; 77.3 µM (inactive) with DMS-114; 48.8 µM (inactive) in the experiment with EKVX; 67.9 µM with HCT-15; 42 µM (inactive) with HT-29. Besides, the GI50 was 28.6 µM (inactive) with K562; > 100 µM (inactive) with LOX IMVI; 40.9 µM (inactive) in the experiment with MOLT-4; > 100 µM (inactive) with OVCAR-4; > 100 µM (inactive) with OVCAR-5; > 100 µM (inactive) with SNB-19. Moreover, the GI50 was 46.5 µM (inactive) with TK-10, > 100 µM (inactive) with U-251 and > 100 µM (inactive) in the experiment with UACC-257.

For `O=c1ccn([C@@H]2C[C@H](CO)C[S+]([O-])C2)c(=O)[nH]1` (stereo partly drawn), the GI50 with A549 was > 100 µM (inactive); with CAKI-1, > 100 µM (inactive); in the experiment on DMS-114, > 100 µM (inactive); in the experiment on EKVX it was > 100 µM (inactive); in the experiment with HCT-15, above 100 µM; with HT-29, > 100 µM (inactive). Moreover, the GI50 in the experiment on K562, with LOX IMVI, in the experiment with MOLT-4, in the experiment with NCI-H522, in the experiment on OVCAR-4 and in the experiment with SNB-19 was > 100 µM (inactive) in each case. Besides, the GI50 with TK-10, with U-251 and in the experiment with UACC-257 was > 100 µM (inactive) in each case.

Take `NC(=O)CC(N/C=C1/N=C(c2ccccc2)OC1=O)C(=O)O` (stereo not drawn): the GI50 with A549 is > 100 µM (inactive); in the experiment on CAKI-1 it was > 100 µM (inactive); with DMS-114 it was > 100 µM (inactive); with EKVX it was > 100 µM (inactive); in the experiment on HCT-15, above 100 µM; with HT-29, > 100 µM (inactive). The GI50 with K562, in the experiment on LOX IMVI, with NCI-H522, in the experiment with OVCAR-4, in the experiment on OVCAR-5 and in the experiment on SNB-19 was > 100 µM (inactive) throughout. Besides, the GI50 in the experiment on TK-10, in the experiment on U-251 and in the experiment with UACC-257 was > 100 µM (inactive) each time.

On to `CCCNC(=S)N/N=C1\C(=O)Nc2ccccc21`, for which the GI50 was > 100 µM (inactive) with A549; > 100 µM (inactive) with CAKI-1; > 100 µM (inactive) in the experiment on EKVX; above 100 µM in the experiment with HCT-15; > 100 µM (inactive) with HT-29; > 100 µM (inactive) in the experiment on Hs-578T. Moreover, the GI50 with K562, with LOX IMVI, in the experiment on MOLT-4, in the experiment on NCI-H522, in the experiment with NCI/ADR-RES and in the experiment with OVCAR-4 was > 100 µM (inactive) each time. Further, the GI50 in the experiment with OVCAR-5, in the experiment on SNB-19, with SR, with T47D, in the experiment with TK-10 and in the experiment on U-251 was > 100 µM (inactive) each time. For the same compound, the GI50 in the experiment with UACC-257 was > 100 µM (inactive).

Regarding `CC(=O)CSc1c(-c2ccccc2)c(=O)n(-c2ccccc2)c(=S)n1-c1ccccc1`, the GI50 with A549 is > 100 µM (inactive); in the experiment on CAKI-1, > 100 µM (inactive); with EKVX, > 100 µM (inactive); in the experiment on HCT-15, above 100 µM; in the experiment on HT-29, > 100 µM (inactive); with Hs-578T, 82.2 µM (inactive). The GI50 was > 100 µM (inactive) in the experiment on K562; > 100 µM (inactive) in the experiment with LOX IMVI; 47.4 µM (inactive) in the experiment with MOLT-4; > 100 µM (inactive) with NCI-H522; > 100 µM (inactive) in the experiment with NCI/ADR-RES; > 100 µM (inactive) in the experiment with OVCAR-4. The GI50 in the experiment with OVCAR-5, in the experiment with SNB-19, in the experiment with SR, with T47D, in the experiment on TK-10 and in the experiment on U-251 was > 100 µM (inactive) in each case. Further, in the experiment on UACC-257, the GI50 was > 100 µM (inactive).
